In patent US20170313669A1, “LACTONE COMPOUNDS AND METHODS OF MAKING AND USING SAME” (THE SCRIPPS RESEARCH INSTITUTE, priority 2015, published 2017):

Tests used:
K562 cells = assay: PS lipase activity of membrane fraction after in situ treatment; conditions: 1 μM, 4 h
ABHD16A−/− macrophages = assay: Lyso-PS and cytokines of ABHD16A−/− macrophages; type: cell-based, mouse; conditions: basal or LPS stimulation; 1 μM, 4 h
Procedure: Concentration of secreted lyso-PS (a) and cytokines IL-6 (b) and TNF-α (c) from thioglycollate-elicited peritoneal mouse macrophages from ABHD16A^−/− mice treated with inhibitor (KC01 or KC02, 1 μM, 4 h) followed by vehicle (PBS) or LPS (5 μg/mL) for 7 h is shown. Data represent mean±s.e.m. for four biological replicates. KC01 and KC02 have no effect on lyso-PS or cytokine secretion. Other secreted and cellular lipids in ABHD16A^−/− macrophages were also unchanged by KC01 or KC02 treatment (data not shown).
Peritoneal macrophages were elicited and harvested from mice according to the standard protocols available from LIPID MAPS (See http://www.lipidmaps.org/protocols/PP0000001400.pdf and http://www.lipidmaps.org/protocols/PP0000001500.pdf). After removal of the RBC lysis buffer, the macrophages were re-suspended in RPMI 1640 with 10% FCS and IX penicillin-streptomycin. Cell counts measured using a Bio-Rad TC10 automated cell counter, and equal numbers of cells (2×10^6) were plated in 10 cm tissue culture dishes. Macrophages were allowed to adhere to the plates for 2 h at 37° C. and 5% CO2. […] Macrophages were then stimulated with lipopolysaccharide (5 μg/mL) for 7 hours. Sterile PBS was the vehicle in these studies. Four milliliters of the media was used for measuring secreted metabolites, and 0.5 mL was used for cytokine measurements.

[1] = biological target: mouse brain membrane PS lipase activity (Mus musculus, UniProt Q9Z1Q2); type: biochemical; conditions: two-month old ABHD12+/+ and ABHD12−/− mice
[2] = biological target: T1, PS lipase activity of human lymphoblast cell lines (LCLs) (Homo sapiens, UniProt O95870); assay: PS lipase activity of LCL membrane proteomes; type: biochemical; conditions: proteomes pre-treated 1 μM, 30 min, 37° C.
T1 construct: PS lipase activity of membrane proteomes from indicated LCLs; endogenous in cells; host or cells: human lymphoblast cell lines (PHARC subject, relatives, controls), membrane proteome
Description: For part (a), Student's t-test: ** p<0.005 for PHARC LCL versus Control 1 or Control 2 LCLs.

ABHD16A = biological target: T2, ABHD16A (Homo sapiens, UniProt O95870); assay: ABPP-SILAC, COLO205 cells treated in situ; type: cell-based; set-up: All ABPP-SILAC experiments were performed using the human COLO205 colon cancer cell line; endogenous in cells; host or cells: COLO205
T2 sequence (O95870 1-558): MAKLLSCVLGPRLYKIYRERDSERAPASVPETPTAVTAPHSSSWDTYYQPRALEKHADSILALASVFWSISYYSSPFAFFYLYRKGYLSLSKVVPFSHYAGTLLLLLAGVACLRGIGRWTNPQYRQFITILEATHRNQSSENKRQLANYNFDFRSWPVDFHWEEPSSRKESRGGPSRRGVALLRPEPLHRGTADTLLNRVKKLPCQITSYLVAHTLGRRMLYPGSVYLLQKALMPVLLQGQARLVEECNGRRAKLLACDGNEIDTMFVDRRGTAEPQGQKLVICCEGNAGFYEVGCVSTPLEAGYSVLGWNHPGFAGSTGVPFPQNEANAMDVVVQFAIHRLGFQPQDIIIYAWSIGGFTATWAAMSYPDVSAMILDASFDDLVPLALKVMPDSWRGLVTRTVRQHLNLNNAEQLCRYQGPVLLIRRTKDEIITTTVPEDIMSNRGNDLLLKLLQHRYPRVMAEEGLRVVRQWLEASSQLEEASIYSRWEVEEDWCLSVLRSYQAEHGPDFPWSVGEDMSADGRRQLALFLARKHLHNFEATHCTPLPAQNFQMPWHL

mouse ABHD16A = biological target: T3, mouse ABHD16A (Mus musculus, UniProt Q9Z1Q2); assay: Competitive gel-based ABPP, mouse ABHD16A-transfected HEK293T proteome; type: biochemical; conditions: 30 min, 37° C., then FP-rhodamine 2 μM
T3 construct: full-length cDNA of human ABHD16A (Open Biosystems Catalog # MHS6278-202758315) or murine ABHD16A (Open Biosystems Catalog # MMM1013-202760516); host or cells: HEK293T, transient, pCMV-SPORT6
T3 sequence (Q9Z1Q2 1-558): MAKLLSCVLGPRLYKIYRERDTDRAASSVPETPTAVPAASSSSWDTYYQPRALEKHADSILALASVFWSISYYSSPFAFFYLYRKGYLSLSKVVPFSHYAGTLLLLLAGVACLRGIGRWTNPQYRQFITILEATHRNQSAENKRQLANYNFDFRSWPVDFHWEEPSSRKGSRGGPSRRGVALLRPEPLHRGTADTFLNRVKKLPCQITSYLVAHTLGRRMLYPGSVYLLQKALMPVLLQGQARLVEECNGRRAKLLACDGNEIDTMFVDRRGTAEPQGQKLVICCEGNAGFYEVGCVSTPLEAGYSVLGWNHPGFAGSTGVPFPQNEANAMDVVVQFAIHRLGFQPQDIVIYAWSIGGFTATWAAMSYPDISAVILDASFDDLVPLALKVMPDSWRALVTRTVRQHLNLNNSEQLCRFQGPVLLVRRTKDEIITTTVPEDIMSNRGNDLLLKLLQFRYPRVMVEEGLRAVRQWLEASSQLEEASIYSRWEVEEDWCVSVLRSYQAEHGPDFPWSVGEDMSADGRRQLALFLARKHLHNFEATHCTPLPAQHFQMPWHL

ABHD2 = biological target: T4, ABHD2 (Homo sapiens, UniProt P08910); assay: ABPP-SILAC, COLO205 cells treated in situ; type: cell-based; conditions: COLO 205, 4 h
T4 construct: All ABPP-SILAC experiments were performed using the human COLO205 colon cancer cell line; endogenous in cells; host or cells: COLO205
T4 sequence (P08910 whole entry): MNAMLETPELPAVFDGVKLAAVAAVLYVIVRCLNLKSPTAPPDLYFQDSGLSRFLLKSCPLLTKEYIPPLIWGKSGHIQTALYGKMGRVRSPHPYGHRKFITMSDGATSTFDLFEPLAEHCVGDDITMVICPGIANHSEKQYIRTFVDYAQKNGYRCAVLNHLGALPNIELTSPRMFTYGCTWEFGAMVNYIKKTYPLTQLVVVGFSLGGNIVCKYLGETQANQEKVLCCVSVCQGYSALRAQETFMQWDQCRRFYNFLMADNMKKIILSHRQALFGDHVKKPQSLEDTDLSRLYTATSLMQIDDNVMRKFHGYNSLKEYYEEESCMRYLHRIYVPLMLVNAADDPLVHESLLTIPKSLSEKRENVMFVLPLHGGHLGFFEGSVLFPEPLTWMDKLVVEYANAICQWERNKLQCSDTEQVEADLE

MCF7 cells = assay: PS lipase activity of membrane fraction after in situ treatment; conditions: 1 μM, 4 h
COLO205 cells = assay: as above; conditions: 1 μM, 4 h

CCCCCCCCCCCCCC1OC(=O)/C1=C\CCCCC(N)=O (stereo not shown) [KC01, (Z)-6-(2-oxo-4-tridecyloxetan-3-ylidene)hexanamide]
decrease of PS-lipase activity vs DMSO (K562 cells): > 90% | cellular or secreted lyso-PS, other lipids, secreted IL-6 and TNF-α (ABHD16A−/− macrophages): No changes | PS lipase activity of brain membrane lysates [1]: inhibited the PS lipase activity | PS lipase activity [2]: substantially reduced | light:heavy ratio (ABHD16A; 1 μM, 4 h): 0.02 | inhibition at 1 µM (ABHD16A; COLO 205, 4 h): 98% | IC50 (mouse ABHD16A): ~500 nM | inhibition at 1 µM (ABHD2): 94% | decrease of PS-lipase activity vs DMSO (MCF7 cells): > 90% | decrease of PS-lipase activity vs DMSO (COLO205 cells): > 90%
